Laboratory results: patent US7462600B2, “Macrolides” (Pfizer Inc, priority 2004, dated 2008)
In brackets after ≈: the same amount, converted by molar mass. Read-outs that look alike come from different tables or passages of the source.

Columns and labels:
Type in all cases: cell-based
[1] = tested on: Streptococcus pneumoniae 1016; test: MIC, microtiter broth dilution (NCCLS M100-S14), S. pneumoniae 1016 (susceptible)
Experimental: (§1) The assay described herein includes a panel of bacterial strains assembled to include a variety of target pathogenic species, including representatives of macrolide resistance mechanisms that have been characterized. In many cases, both the macrolide-susceptible parent strain and the macrolide-resistant strain derived from it are available to provide a more accurate assessment of the compound's ability to circumvent the resistance mechanism. The assay is performed in microtiter trays and interpreted according to Performance Standards for Antimicrobial Susceptibility Testing; 14th Informational Supplement (M100-S14), published by The National Committee for Clinical Laboratory Standards (NCCLS) guidelines; the MIC is used to compare strains. Compounds are initially dissolved in DMSO as 40 mg/ml stock solutions.

[2] = tested on: Haemophilus influenzae 1218; test: MIC, microtiter broth dilution (NCCLS M100-S14), H. influenzae 1218 (susceptible); conditions: Haemophilus influenzae 1218
Experimental: as §1

[3] = tested on: Streptococcus pneumoniae 1175; conditions: microtiter broth dilution
Experimental: as §1

[4] = tested on: Streptococcus pneumoniae 1095; conditions: microtiter broth dilution
Experimental: as §1

[5] = tested on: Streptococcus pyogenes 1079; test: MIC, microtiter broth dilution (NCCLS M100-S14), S. pyogenes 1079 (ermB)
Experimental: as §1

[6] = S. pneumoniae 1016 (susceptible)

| Compound | MIC S. pneumo. 1016 ([1]; Streptococcus pneumoniae 1016) | MIC H. influenzae 1218 [2] | MIC S. pneumo. 1175 ([3]; Streptococcus pneumoniae 1175) | MIC S. pneumo. 1095 ([4]; Streptococcus pneumoniae 1095) | MIC S. pyogenes 1079 ([5]; Streptococcus pyogenes 1079) | MIC S. pneumo. 1016 [1, 6] | MIC S. pneumo. 1175 ([3]; S. pneumoniae 1175 (mefA)) | MIC S. pneumo. 1095 ([4]; S. pneumoniae 1095 (ermB)) | MIC S. pyogenes 1079 ([5]; S. pyogenes 1079 (ermB)) |
| --- | --- | --- | --- | --- | --- | --- | --- | --- | --- |
| CCC1OC(=O)C(C)C(=O)C(C)C(OC2OC(C)CC(N(C)C)C2O)C(C)(OC)CC(C)C(=O)C(C)C2N(CC3CN(C(=O)c4cccc5cccnc45)C3)C(=O)OC12C (stereo not shown) [Example 4.34, 3-descladinosyl-11,12-dideoxy-6-O-methyl-3-oxo-12,11-(oxycarbonyl-((1-(quinoline-8-carbonyl)-azetidin-3-yl)-methyl)-imino)-erythromycin A] | <0.06 µg/mL | 0.25 µg/mL (≈ 0.299 µM) | 1 µg/mL (≈ 1.19 µM) | 1 µg/mL (≈ 1.19 µM) |  |  |  |  |  |
| CCC1OC(=O)C(C)C(=O)C(C)C(OC2OC(C)CC(N(C)C)C2O)C(C)(OC)CC(C)C(=O)C(C)C2N(C3CN(Cc4ccn(-c5ccccn5)n4)C3)C(=O)OC12C (stereo not shown) [Example 1.10] | <0.06 µg/mL |  | 0.12 µg/mL (≈ 0.145 µM) | <0.06 µg/mL | >64.00 µg/mL |  |  |  |  |
| CC[C@H]1OC(=O)[C@H](C)C(=O)[C@H](C)[C@@H](O[C@@H]2O[C@H](C)C[C@H](N(C)C)[C@H]2O)[C@](C)(OC)C[C@@H](C)C(=O)[C@H](C)[C@H]2N(CC3(C)CN(C(=O)c4cccc5ncccc45)C3)C(=O)O[C@]12C.O=CO [6.14] |  |  |  |  |  | <0.06 µg/mL | 0.25 µg/mL | 8 µg/mL | >64.00 µg/mL |
| CC[C@H]1OC(=O)[C@H](C)C(=O)[C@H](C)[C@@H](O[C@@H]2O[C@H](C)C[C@H](N(C)C)[C@H]2O)[C@](C)(OC)C[C@@H](C)C(=O)[C@H](C)[C@H]2N(CC3(C)CN(C(=O)c4cnc5ccccc5c4)C3)C(=O)O[C@]12C.O=CO [6.12] |  |  |  |  |  | <0.06 µg/mL | 0.12 µg/mL | 0.25 µg/mL | >64.00 µg/mL |
| CCC1OC(=O)C(C)C(=O)C(C)C(OC2OC(C)CC(N(C)C)C2O)C(C)(OC)CC(C)C(=O)C(C)C2N(C3CN(Cc4c(F)cccc4OC)C3)C(=O)OC12C (stereo not shown) [Example 1.85, 3-descladinosyl-11,12-dideoxy-6-O-methyl-3-oxo-12,11-(oxycarbonyl-(1-(1-fluoro-3-methoxybenzene-2-methyl)-azetidin-3-yl)-imino)-erythromycin A] | <0.063 µg/mL | 2 µg/mL (≈ 2.48 µM) |  |  | 16 µg/mL (≈ 19.9 µM) |  |  |  |  |
| CC[C@H]1OC(=O)[C@H](C)C(=O)[C@H](C)[C@@H](O[C@@H]2O[C@H](C)C[C@H](N(C)C)[C@H]2O)[C@](C)(OC)C[C@@H](C)C(=O)[C@H](C)[C@H]2N(CC3(C)CN(C(=O)c4ccc5cccnc5c4)C3)C(=O)O[C@]12C.O=CO [6.16] |  |  |  |  |  | <0.06 µg/mL | 0.12 µg/mL | 0.12 µg/mL | >64.00 µg/mL |
| CC[C@H]1OC(=O)[C@H](C)C(=O)[C@H](C)[C@@H](O[C@@H]2O[C@H](C)C[C@H](N(C)C)[C@H]2O)[C@](C)(OC)C[C@@H](C)C(=O)[C@H](C)[C@H]2N(CC3(C)CN(C(=O)c4ccc5ncccc5c4)C3)C(=O)O[C@]12C.O=CO [6.15] |  |  |  |  |  | <0.06 µg/mL | 2 µg/mL | 8 µg/mL | >64.00 µg/mL |
| CCC1OC(=O)C(C)C(=O)C(C)C(OC2OC(C)CC(N(C)C)C2O)C(C)(OC)CC(C)C(=O)C(C)C2N(C3CN(C(COC)c4ccnc5ncccc45)C3)C(=O)OC12C (stereo not drawn) [Example 1.81, 3-descladinosyl-11,12-dideoxy-4-O-methyl-3-oxo-12,11-(oxycarbonyl-(1-(2-(methoxy)-1R-(1,8-napthyridin-4-yl)-ethyl)-azetidin-3-yl)-imino)-erythromycin A] | <0.063 µg/mL |  | <0.063 µg/mL | 0.5 µg/mL (≈ 0.585 µM) | 4 µg/mL (≈ 4.68 µM) |  |  |  |  |
| CC[C@H]1OC(=O)[C@H](C)C(=O)[C@H](C)[C@@H](O[C@@H]2O[C@H](C)C[C@H](N(C)C)[C@H]2O)[C@](C)(OC)C[C@@H](C)C(=O)[C@H](C)[C@H]2N(CC3(C)CN(C(=O)c4cccc(-n5cccn5)n4)C3)C(=O)O[C@]12C.O=CO [6.21] |  |  |  |  |  | <0.06 µg/mL | 0.5 µg/mL | 16 µg/mL | >64.00 µg/mL |
| CC[C@H]1OC(=O)[C@H](C)C(=O)[C@H](C)[C@@H](O[C@@H]2O[C@H](C)C[C@H](N(C)C)[C@H]2O)[C@](C)(OC)C[C@@H](C)C(=O)[C@H](C)[C@H]2N(CC3(C)CN(C(=O)c4ccc5ncsc5c4)C3)C(=O)O[C@]12C.O=CO [6.19] |  |  |  |  |  | <0.06 µg/mL | 0.5 µg/mL | 1 µg/mL | >64.00 µg/mL |
| CCC1OC(=O)C(C)C(=O)C(C)C(OC2OC(C)CC(N(C)C)C2O)C(C)(OC)CC(C)C(=O)C(C)C2N(C3CN(Cc4nc5ccccc5[nH]4)C3)C(=O)OC12C (stereo not shown) [Example 1.09, (1H-benzo[d]imidazo-2-yl)methyl] | <0.06 µg/mL |  | 0.25 µg/mL (≈ 0.313 µM) | <0.06 µg/mL | >64.00 µg/mL |  |  |  |  |
